The text below walks through data of patent EP1834952A1, “Compound for promoting the growth of neural cells” (NatureWise Biotech & Medicals Corporation, priority 2006, dated 2007).

What all share (format): cell-based, Wistar rat
The subject of one assay is NSCs. The assay is described as follows: Continuous cultivation of NSCs for 30 days, morphology and later differentiation (Example 7). Here is the method:
As in Example 1, the NSCs were cultivated continuously and the growth media were replaced every seven days. DMSO-added growth media were used as the negative control. After 30 days, 100 µl of the cell suspension was aspirated and diluted to 1 ml. 250 µl of the supernatant was aspirated and placed on the slides coated with 30 µg/ml poly-D-lysine (Sigma). The cell morphology was observed thereafter under a microscope.
Unlike the normal neural stem cells, the cells lose their propensity to aggregate and form spheres, and the cells become atrophic in the cultivating suspension. […] These cells were cultivated for another 3 days and the cells were stained with immunofluorescence the same as in Example 5.

The test system of assay [1] is cortical neurons. In words: Neurite length of cortical neurons cultivated at low density, by microscope (Example 4). Particulars: 38 cells/mm^2, 5 days; for growth of neurons and neurites under microscope: in the control all neural cells are dead. Here is the method: Cells obtained from the suspension prepared in Example 1 were cultivated at a density of 38 cells/ mm^2 in 6-well plates coated with 30 µg/ml poly-D-lysine (Sigma) at 37°C, 5% CO2 and 95% relative humidity. The growth media contained compounds A, B, D, and G respectively and the growth media added with 5 µl of DMSO were used as control. The differentiated cells are categorically called cortical neurons.
The experiments were repeated three times. After cultivating for 5 days, the cells were observed under microscope and the length of the neurites was measured.

Assay [2] deals with cortical neurons. The assay is described as follows: Survival of cortical neurons, live cell count by MTT assay (Examples 2 and 3). Particulars: 300 cells/mm^2; 5 days; versus DMSO control; FIG. 2. How it is done: Cells obtained from the suspension prepared in Example 1 were cultivated in 6-well plates coated with 30 µg/ml of poly-D-lysine (Sigma) at 300 cells/mm^2 and cultivated at 37°C, 5% CO2 and 95% relative humidity. The growth media contained compounds A, B, D, E, F, G, and H respectively and the growth media added with 5 µl of DMSO were used as control. The differentiated cells after cultivation were categorically called cortical neurons.
The experiments were repeated three times. After cultivating for 5 days, live cells were counted by a known cell-counting method (MTT assay) and the absorbance was read at 540 nm.
Cells obtained from the suspension prepared in Example 1 were cultivated at a density of 150 or 300 cells/mm^2 in 6-well plates coated with 30 µg/ml poly-D-lysine (Sigma) at 37°C, 5% CO2 and 95% relative humidity. The growth media contained compounds A, D, and G respectively and the growth media added with 5 µl of DMSO were used as control. The differentiated cells are categorically called cortical neurons.
The experiments were repeated three times. After cultivating for 5 days, the live cells were counted by a known cell-counting method (MTT assay) and the absorbance was read at 540 nm.
Background: Tetrazolium dyes change colour on reduction, which living cells bring about.

The test system of a further assay is neural stem cells. The assay is described as follows: Differentiation of NSCs from neurospheres, MAP-2 immunofluorescent staining (Examples 5 and 6). How it is done: In the beginning of cultivating NSCs, either compound A or EGF was added into the growth media. The cells were cultivated for 3 days and the cells would aggregate to form neurospheres. One hundred µl of the cell suspension was aspirated and diluted to 1 ml. 250 µl of the supernatant which contained neurospheres was aspirated and placed on the cover slides coated with 30 µg/ml poly-D-lysine (Sigma). After all the cells had been attached onto the slides, the media was removed and replaced with the cultivating media containing compound A (FIG. 5A), EGF (FIG. 5C), or none of the growth factors (FIG. 5B, compound A in the beginning; FIG 5D, EGF in the beginning). The cells were cultivated for another 3 days at the same condition as described above so that the cells would differentiate into cortical neurons.
The cells were stained with a known immunofluorescent staining method. To stain the neurons, a neurological marker of MAP-2 (microtubule-associated protein 2) antibody was used as the primary antibody and a fluorescent material-labeled mouse immunoglobulin that identified primary antibody was used as the second antibody. After the primary antibody that had been bound onto the neurons was identified and bound by the secondary antibody, the neurons emit fluorescent light under the excitation of a specific light source.
The procedures were similar to Example 5. However, in the beginning of cultivating the neural stem cells, both compound D and EGF were added into the media. After all the cells had been attached onto the slides, the media were removed and replaced with the cultivating media containing compound D (FIG. 6B), EGF (FIG. 6C), none of the growth factors (FIG. 6D), or both compound D and EGF (FIG. 6A). The cells were cultivated for another 3 days and the cell morphology was observed thereafter by using immunofluorescent staining technique.

Turning to `C/C(=C\Cc1c([C@@H]2CC(=O)c3c(O)cc(O)cc3O2)ccc(O)c1O)CCCC(C)(C)O` [compound A], the “cell morphology of NSCs after 30 days” value in the assay with NSCs (media replaced every seven days, almost no surviving cells in DMSO control, FIG. 7B) is reported as “can maintain the characteristics of forming spherical clusters”. In addition, the “differentiation of 30-day neurospheres (immunofluorescence)” value with NSCs (then another 3 days on slides, FIG. 7C) is recorded as “differentiating normally into neurons with the continuous outgrowth of neurites”. In the assay on cortical neurons [1] (2.5 µM), the “length of neurites, L1” value was found to be 236 µm; the “length of neurites, L2” value is on record as 161 µm; the “neurites extending out of each soma” value is reported as “at least 3”; the “growth of neurons and neurites under microscope” value (“growth of neurons and neurites” below) is “continuous growth of the neurons and the extension of the neurites can be observed”. Further, the “absorbance at 540 nm (live cells, MTT assay)” value (from here on “absorbance at 540 nm”) with cortical neurons [2] is given as “best results”. The “differentiation of NSCs (MAP-2 staining)” value with neural stem cells (supplemented in the beginning (3 days) and thereafter at seeding on slides (another 3 days), FIG. 5A/5C) is “the cells will differentiate into neurons”. Moreover, the “differentiation of NSCs (MAP-2 staining)” value in the assay on neural stem cells (supplemented in the beginning only, none thereafter, FIG. 5B/5D) was “the cells will differentiate into neurons”.

Regarding `C/C(=C\Cc1cc([C@@H]2CC(=O)c3c(O)cc(O)cc3O2)cc(O)c1O)CCCC(C)(C)O` [compound B], in the assay on cortical neurons [1] (5 µM), the “length of neurites, L1” value worked out at 235 µm; the “neurites extending out of each soma” value is “at least 3”; the “growth of neurons and neurites” value is “continuous growth of the neurons and the extension of the neurites can be observed”.

As to `CC(C)=CCC/C(C)=C/Cc1c([C@@H]2CC(=O)c3c(O)cc(O)cc3O2)ccc(O)c1O` [compound D], in the assay with cortical neurons [1] (5 µM), the “length of neurites, L1” value stood at 211 µm; the “neurites extending out of each soma” value is recorded as “at least 3”; the “growth of neurons and neurites” value was “continuous growth of the neurons and the extension of the neurites can be observed”. For the same molecule, the “absorbance at 540 nm” value in the assay with cortical neurons [2] is “best results”. Besides, the “differentiation of NSCs (MAP-2 staining)” value in the assay with neural stem cells (both compound D and EGF in the beginning, compound D thereafter, FIG. 6B) is “the cells will differentiate into neurons”.

For `CC(C)=CCC/C(C)=C/Cc1c(O)cc2c(c1O)C(=O)C[C@@H](c1ccc(O)c(O)c1CC=C(C)C)O2` [compound G], in the assay on cortical neurons [1] (5 µM), the “length of neurites, L1” value came out at 316 µm; the “length of neurites, L2” value is listed as 216 µm; the “neurites extending out of each soma” value is recorded as “at least 3”; the “growth of neurons and neurites” value is “continuous growth of the neurons and the extension of the neurites can be observed”. Moreover, in the assay with cortical neurons [2], the “absorbance at 540 nm” value was “best results”.
